We go through eleven compounds from patent EP3569594A1, “METHOD FOR THE PREPARATION OF SUBSTITUTED PYRAZINES” (Universität Graz, priority 2018, dated 2019).

One experiment relates to XenA. In words: Reactivity screening of oximes with purified ene-reductase, conversion by GC-FID. Format: biochemical, Pseudomonas putida II-B. As to conditions: XenA 100 µg/ml, 10 mM Oxim, 0,5 mM NAD(P)H/H+, Glucose/GDH, Tris-HCl pH 7,5, 30 °C, 24 h. The text has this: (§1) Die En-Reduktase ist zwar nicht speziell eingeschränkt, ist aber vorzugsweise aus der OYE-Familie, d.h. der Familie der "Old Yellow Enzymes" ausgewählt, da Vertreter dieser Gruppe von Enzymen allesamt gute Ergebnisse geliefert haben. Noch bevorzugter ist die ER aus den folgenden bereits getesteten Enzymen ausgewählt: • OYE1 von Saccharomyces pastorianus, • OYE2 von Saccharomyces cerevisiae, • OYE3 von Saccharomyces cerevisiae, • 12-Oxophytodienoat-Reduktase 3 (OPR3) von Arabidopsis thaliana, • xenobiotischer Reduktase A (XenA) von Pseudomonas putida II-B und • En-Reduktase von Ferrovum sp. JA12 (FOYE).
(§2) Plasmide, die jeweils ein für eine der En-Reduktasen OYE1, OYE2, OYE3, OPR3, XenA und FOYE kodierendes Gen enthielten, wurden in chemisch kompetente E. coli BL21(DE3)-Zellen transformiert. Die sechs Über-Nacht-Kulturen wurden in LB-Medium, das mit 50 µg/ml Kanamycin (für OYE1-3 und FOYE) oder 100 µg/ml Ampicillin (für OPR3 und XenA) ergänzt worden war, bei 30 °C und 120 U/min kultiviert. Hauptkulturen (1 l LB-Medium, 50 µg/ml Kanamycin oder 100 µg/ml Ampicillin) wurden mit je 3 ml der entsprechenden Über-Nacht-Kultur inokuliert und bei 37 °C, 120 U/min geschüttelt, bis die OD600 0,6 bis 0,8 erreichte. Die Proteinproduktion wurde durch Zusatz von Isopropyl-β-D-thiogalactopyranosid (IPTG) (0,2 mM für OYE1-3 und XenA, 1 mM für OPR3 und 0,05 mM für FOYE) induziert und bei 20 °C über Nacht (für OYE1-3 und FOYE) oder bei 37 °C 4 h lang (für XenA und OPR3) geschüttelt. Die Zellen wurden durch Zentrifugation (5000 U/min, 4 °C, 20 min) geerntet, das Pellet wurde mit 100 mM Tris-HCI-Puffer pH 7,5 (25 ml) gewaschen und bei -20 °C gelagert.
(§3) Als Modellreaktion für die Feststellung der Enzymaktivität wurde im Handel erhältlicher 2-Oximinoacetessigsäureethylester (1a) mit den sechs in den Synthesebeispielen 1 bis 6 hergestellten En-Reduktasen (ER) in analytischem Maßstab umgesetzt. Dazu wurden in ein 2-ml-Eppendorf-Röhrchen 100 µg/ml der jeweiligen gereinigten En-Reduktase, 0,5 mM NAD(P)H/H^+, 50 mM Glucose und 1 mg/ml GDH in 100 mM Tris-HCl-Puffer, pH 7,5, gelöst. Die Reaktionen wurden durch Zugabe von 10 mM Oxim (1a) (aus einer 200 mM Stammlösung in DMSO) auf ein Endvolumen von 500 µl gestartet und 24 h lang bei 30 °C, 120 U/min geschüttelt. Danach wurden die Reaktionsgemische jeweils mit 1 ml Chloroform extrahiert, die organische Phase wurde über MgSO4 getrocknet und mittels GC-FID analysiert und der Umsatz anhand der Peakflächenprozentsätze ermittelt. Wie aus nachstehender Tabelle 1 hervorgeht, wurde nach 24 h in allen sechs Fällen praktisch vollständiger Umsatz festgestellt. Tabelle 1: Anfängliches Reaktivitätsscreening mit Modelloxim (1a)
(§4) Zur Ermittlung, welche anderen Derivate der 2-Oximinoacetessigsäure mittels enzymatischer Katalyse durch die sechs in den Synthesebeispielen 1 bis 6 hergestellten En-Reduktasen (1) zu Pyrazindicarbonsäure-Derivaten (2) umsetzbar sein würden, wurden die für die Beispiele 1 bis 6 beschriebene Vorgangsweise unter Verwendung der in den Synthesebeispielen 7 bis 13 hergestellten Oxime (1b) bis (1h) anstelle von (1a) wiederholt. Überraschenderweise wurde in sämtlichen Fällen nach 24 h praktisch vollständiger Umsatz beobachtet, wie aus nachstehender Tabelle 2 hervorgeht. Tabelle 2: Reaktivitätsscreening mit den Oximen (1b) bis (1h)

For experiment [1], the system named is FOYE. The description is as above. Particulars: FOYE 100 µg/ml, 10 mM Oxim, 0,5 mM NAD(P)H/H+, Glucose/GDH, Tris-HCl pH 7,5, 30 °C, 24 h. The format is biochemical, Ferrovum sp. JA12.
Description: as §1, §2, §3, §4

The target of the next experiment is T1, OYE1 (Saccharomyces pastorianus, UniProt Q02899).
T1 construct: made in house; host or cells: E. coli BL21(DE3)
T1 sequence (Q02899 whole entry): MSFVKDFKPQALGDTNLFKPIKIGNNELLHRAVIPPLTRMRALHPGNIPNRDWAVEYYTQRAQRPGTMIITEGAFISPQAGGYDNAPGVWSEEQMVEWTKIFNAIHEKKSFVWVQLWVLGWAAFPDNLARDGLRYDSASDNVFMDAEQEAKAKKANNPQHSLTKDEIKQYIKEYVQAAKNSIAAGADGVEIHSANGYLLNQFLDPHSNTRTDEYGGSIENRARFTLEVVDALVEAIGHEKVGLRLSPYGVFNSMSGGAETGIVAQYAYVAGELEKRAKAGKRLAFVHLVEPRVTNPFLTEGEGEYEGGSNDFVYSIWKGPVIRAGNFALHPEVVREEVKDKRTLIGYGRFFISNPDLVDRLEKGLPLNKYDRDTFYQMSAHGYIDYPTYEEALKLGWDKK
The description is as above. Format: biochemical. As to conditions: OYE1 100 µg/ml, 10 mM Oxim, 0,5 mM NAD(P)H/H+, Glucose/GDH, Tris-HCl pH 7,5, 30 °C, 24 h.
Description: as §1, §2, §3, §4

A further experiment addresses T2, OYE3 (Saccharomyces cerevisiae, UniProt P41816).
T2 construct: made in house; host or cells: E. coli BL21(DE3)
The description is as above. The format is biochemical. As to conditions: OYE3 100 µg/ml, 10 mM Oxim, 0,5 mM NAD(P)H/H+, Glucose/GDH, Tris-HCl pH 7,5, 30 °C, 24 h.
Description: as §1, §2, §3, §4

A further experiment addresses T3, OYE2 (Saccharomyces cerevisiae, UniProt Q03558).
T3 construct: made in house; host or cells: E. coli BL21(DE3)
The description is as above. The format is biochemical. As to conditions: OYE2 100 µg/ml, 10 mM Oxim, 0,5 mM NAD(P)H/H+, Glucose/GDH, Tris-HCl pH 7,5, 30 °C, 24 h.
Description: as §1, §2, §3, §4

Another experiment concerns the target T4, OPR3 (Arabidopsis thaliana, UniProt Q9FUP0).
T4 construct: made in house; host or cells: E. coli BL21(DE3)
The description is as above. Format: biochemical. Particulars: OPR3 100 µg/ml, 10 mM Oxim, 0,5 mM NAD(P)H/H+, Glucose/GDH, Tris-HCl pH 7,5, 30 °C, 24 h.
Description: as §1, §2, §3, §4

Experiment [2] deals with FOYE. Put plainly: Photometric activity measurement by consumption of coenzyme NAD(P)H/H+ with diketone oximes. The format is biochemical, Ferrovum sp. JA12. The text has this:
Zur Untersuchung, ob die enzymatische Katalyse auch mit 2-Oximino-1,3-diketonen anstelle der 2-Oximinoacetessigsäure-Derivate als Substrate abläuft, d.h. ob das Carbonsäure-Ende des Substratmoleküls für die Reaktion erforderlich ist, wurden die drei nachstehend dargestellten Diketon-Oxime (3a), (3b) und (3c) [drawing 12] auf analoge Weise zu den obigen Synthesebeispielen 7 bis 13 aus den entsprechenden Diketon-Ausgangsprodukten (Acetylaceton, ω-Acetylacetophenon und 1-Isopropylacetylaceton) hergestellt und auf analoge Weise zu den obigen Beispielen 7 und 8 mit FOYE als En-Reduktase umgesetzt.
Während der Reaktionen wurden photometrische Aktivitätsmessungen durchgeführt, bei denen die Enzymaktivität anhand des Verbrauchs des Coenzyms NAD(P)H/H^+ bestimmt wurde. Die Ergebnisse sind in nachstehender Tabelle 3 angeführt. Tabelle 3: Reaktivitätsscreening mit den Diketon-Oximen (3a) bis (3c)

T3 sequence (Q03558 whole entry): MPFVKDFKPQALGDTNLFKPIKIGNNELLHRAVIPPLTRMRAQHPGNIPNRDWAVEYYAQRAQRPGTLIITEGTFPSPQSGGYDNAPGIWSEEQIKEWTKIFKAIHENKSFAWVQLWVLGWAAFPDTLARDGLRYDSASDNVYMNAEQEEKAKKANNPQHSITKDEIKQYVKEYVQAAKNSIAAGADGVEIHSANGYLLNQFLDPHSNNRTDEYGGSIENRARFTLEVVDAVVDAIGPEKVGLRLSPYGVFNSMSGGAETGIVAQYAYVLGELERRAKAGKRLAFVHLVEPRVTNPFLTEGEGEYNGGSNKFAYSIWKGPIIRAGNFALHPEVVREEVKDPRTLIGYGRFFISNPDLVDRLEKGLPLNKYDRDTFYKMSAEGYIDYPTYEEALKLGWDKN
T4 sequence (Q9FUP0 whole entry): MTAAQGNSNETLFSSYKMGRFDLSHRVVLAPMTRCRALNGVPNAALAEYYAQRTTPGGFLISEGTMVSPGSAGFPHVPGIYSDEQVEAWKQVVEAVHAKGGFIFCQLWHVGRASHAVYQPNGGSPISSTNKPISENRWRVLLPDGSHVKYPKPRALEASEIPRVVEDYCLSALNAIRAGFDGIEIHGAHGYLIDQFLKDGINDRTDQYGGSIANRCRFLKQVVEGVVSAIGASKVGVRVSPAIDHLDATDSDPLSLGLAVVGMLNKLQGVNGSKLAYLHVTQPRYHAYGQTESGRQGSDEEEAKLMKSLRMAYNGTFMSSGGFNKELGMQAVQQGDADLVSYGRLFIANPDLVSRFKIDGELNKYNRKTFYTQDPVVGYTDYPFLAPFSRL
T2 sequence (P41816 whole entry): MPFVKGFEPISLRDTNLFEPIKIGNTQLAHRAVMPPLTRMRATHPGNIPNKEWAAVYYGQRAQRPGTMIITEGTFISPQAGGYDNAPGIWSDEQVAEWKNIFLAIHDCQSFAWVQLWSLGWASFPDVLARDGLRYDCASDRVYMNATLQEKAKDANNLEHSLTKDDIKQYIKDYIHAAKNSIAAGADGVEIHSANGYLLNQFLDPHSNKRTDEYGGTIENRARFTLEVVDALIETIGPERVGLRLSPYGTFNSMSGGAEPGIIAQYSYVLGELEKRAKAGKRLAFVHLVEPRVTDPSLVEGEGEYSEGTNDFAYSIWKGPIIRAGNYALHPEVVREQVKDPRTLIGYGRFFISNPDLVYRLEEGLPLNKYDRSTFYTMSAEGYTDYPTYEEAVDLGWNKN

For `CCOC(=O)C(=NO)C(C)=O` [(1a), 2-Oximinoacetessigsäureethylester, reference compound], the Umsatz with XenA, in the experiment with FOYE [1], on OYE1, at OYE3, on OYE2 and on OPR3 was above 99% in each case.

Consider `CC(=O)C(=NO)C(=O)Nc1ccccc1` [(1b), 2-Oximinoacetessigsäure-N-phenylamid], for which the Umsatz in the experiment with XenA, in the experiment on FOYE [1], at OYE1, on OYE3, on OYE2 and at OPR3 was above 99% in each case.

Take `C=CCOC(=O)C(=NO)C(C)=O` [(1c), 2-Oximinoacetessigsäureallylester]: the Umsatz in the experiment on XenA, in the experiment with FOYE [1], on OYE1, at OYE3, on OYE2 and on OPR3 was above 99% each time.

`CCCCOC(=O)C(=NO)C(C)=O` [(1d), 2-Oximinoacetessigsäurebutylester]: the Umsatz in the experiment with XenA, with FOYE [1], at OYE1, on OYE3, at OYE2 and on OPR3 was above 99% in each case.

Regarding `CC(=O)C(=NO)C(=O)OCc1ccccc1` [(1e), 2-Oximinoacetessigsäurebenzylester], the Umsatz with XenA, in the experiment with FOYE [1], on OYE1, on OYE3, on OYE2 and on OPR3 was above 99% in each case.

In the case of `CCCCCCCOC(=O)C(=NO)C(C)=O` [(1f), 2-Oximinoacetessigsäureheptylester], the Umsatz in the experiment with XenA, in the experiment with FOYE [1], at OYE1, at OYE3, on OYE2 and on OPR3 was above 99% in each case.

Take `COCCOC(=O)C(=NO)C(C)=O` [(1g), 2-Oximinoacetessigsäure-2-methoxyethylester]: the Umsatz in the experiment on XenA, in the experiment on FOYE [1], on OYE1, at OYE3, at OYE2 and on OPR3 was above 99% throughout.

As for `CCOC(=O)C(=NO)C(=O)CC` [(1h), 4-Methyl-2-oximinoacetessigsäureethylester], the Umsatz in the experiment on XenA, with FOYE [1], at OYE1, on OYE3, at OYE2 and at OPR3 was above 99% throughout.

On to `CC(=O)C(=NO)C(C)=O` [Oxim 3a, 3-Oximinoacetylaceton], for which the Aktivität with FOYE [2] was determined as 6 U/mg.

With `CC(=O)C(=NO)C(=O)c1ccccc1` [Oxim 3b, α-Acetyl-α-oximinoacetophenon], the Aktivität in the experiment with FOYE [2] was 18 U/mg.

In the case of `CC(=O)C(=NO)C(=O)CC(C)C` [Oxim 3c, 1-Isopropyl-3-oximinoacetylaceton], in the experiment with FOYE [2], the Aktivität was determined as 23 U/mg.
